Blank lines part the entries; values can stand above or below the molecule they belong to.
Experiments:
[1] = Pharmacokinetics study after i.p. administration; type: in vivo, mice; settings: mouse, ip
Method: To assess the efficacy, tolerability, and pharmacokinetics of these novel compounds following i.p. administration, the pharmacokinetic profile of compounds 4 and 9 was evaluated (Table 3). Mice were treated with compounds 4 and 9 via i.p. injection and serial blood sampling was determined at indicated times after administration. The plasma concentration was determined using a validated liquid chromatography mass spectrometry (LC-MS) method where the lowest level of quantification was 1 ng/mL. One hour following i.p. administration of compounds 4 and 9, their concentrations in the blood were 344 and 6.2 ng/mL, respectively. […] The half-lives of compounds 4 and 9 via i.p. administration were determined to be approximately 3.5 and 9.3 hours, respectively, when a non-compartmental pharmacokinetics analysis was used. The favorable pharmacokinetics profile of compounds 4 and 9 is consistent with the ADMET predictions described previously.
Preliminary pharmacokinetics of compounds 4 and 9 were performed using 18 mice, each time point consisting of two mice. Mice were stratified to various doses given as an i.p. injection of compounds 4 and 9 (24 mg/kg). At the specified time points following drug administration, blood was collected with heparinized syringes. The samples were allowed to settle in 500 μL eppendorf vials and then centrifuged at 1500 rpm for 10 min. The plasma was removed, transferred into new eppendorf tube, and frozen at −80° C. until analysis.

[2] = test system: HCT116 p53^−/− colon cancer cell line; experiment: MTT cytotoxicity assay, HCT116 p53-/-; type: cell-based; settings: Homo sapiens, HCT-116, 72 h exposure
Description: (§1) The human breast cancer cell line MDA-MB-435 and the colon cancer cell line HT29 were purchased from the American Type Cell Culture (Manassas, Va.). Colon cancer cell lines HCT116 p53^+/+ and HCT116 p53^−/− were kindly provided by Dr. Bert Vogelstein (Johns Hopkins Medical Institutions, Baltimore, Md.). The human ovarian carcinoma cell line (HEY), naturally resistant to cisplatin (CDDP), was kindly provided by Dr. Louis Dubeau (USC Norris Cancer Center). The bladder cancer cell lines were kindly provided by Dr. Richard Cote (USC Keck School of Medicine). Cells were maintained as monolayer cultures in the appropriate media: RPMI-1640 (HT29, HCT116 p53^+/+, HCT116 p53^−/−, and HEY cell lines) or DMEM (MDA-MB-435 and UMUC3 cell lines) supplemented with 10% fetal bovine serum (FBS) (HyClone, Road Logan, Utah) at 37° C. in a humidified atmosphere of 5% CO2. To remove the adherent cells from the flask for subculture and counting, cells were washed with PBS without calcium or magnesium, incubated with a small volume of 1×trypsin-EDTA solution (Sigma-Aldrich, St. Louis, Mo.) for 5 min, resuspended with fresh culture medium, and centrifuged at 1200 rpm for 5 min. All experiments were performed using cells in exponential growth phase. Cells were routinely checked for Mycoplasma contamination using PlasmaTest kit (InvivoGen, San Diego, Calif.).
(§2) Cytotoxicity was assessed by MTT assay as described previously. 43 In brief, cells were seeded in 96-well microtiter plates and allowed to attach overnight. Cells were subsequently treated with continuous exposure to corresponding drugs for 72 h. At the end of treatments, an MTT solution (at a final concentration of 0.5 mg/mL) was added to each well, and cells were incubated for 4 h at 37° C. After removal of the supernatant, DMSO was added, and the absorbance was read at 570 nm. All assays were done in triplicate. The IC50 was then determined for each drug from a plot of log(drug concentration) versus percentage of cells killed.

[3] = test system: HT29 colon cancer cell line; experiment: MTT cytotoxicity assay, HT29; type: cell-based; settings: Homo sapiens, HT-29, 72 h exposure
Description: as §1, §2

[4] = test system: MDA-MB-435 breast cancer cell line; experiment: MTT cytotoxicity assay, MDA-MB-435; type: cell-based, human; settings: for IC50: 72 h exposure
Description: as §1, §2

[5] = test system: HEY ovarian cancer cell line; experiment: Cytotoxicity assay, HEY; type: cell-based; settings: Homo sapiens
Description: as §1, §2

[6] = test system: doxorubicin-resistant NCI/ADR-RES ovarian cancer cell line; experiment: Cytotoxicity assay, NCI/ADR-RES; type: cell-based; settings: Homo sapiens
Method: as §2

[7] = test system: 5637 bladder cancer cell line; experiment: MTT cytotoxicity assay, 5637; type: cell-based, human; settings: Homo sapiens, 72 h exposure
Description: as §1, §2

[8] = test system: UMUC3 bladder cancer cell line; experiment: MTT cytotoxicity assay, UMUC3; type: cell-based; settings: Homo sapiens, 72 h exposure
Description: as §1, §2

[9] = test system: HCT116 p53^+/+ colon cancer cell line; experiment: MTT cytotoxicity assay, HCT116 p53+/+; type: cell-based; settings: Homo sapiens, HCT-116, 72 h exposure
Description: as §1, §2

MDA-MB-435 cells = experiment: Mitochondrial superoxide production (MitoSOX Red); type: cell-based, human
Method: After drug treatments, a solution of 5 μM MitoSOX Red mitochondrial superoxide indicator (Invitrogen, Carlsbad, Calif.) was added, and cells were incubated for 10 min at 37° C. Cells were then washed three times with Hank's balanced salt solution (HBSS) to remove excess MitoSOX. After washing, cells were either observed under the fluorescence microscope or collected by trypsinization, washed twice with HBSS, and measured for superoxide production using a BD LSRII flow cytometer (BD Biosciences, San Jose, Calif., USA). Data were analyzed with the BD FACSDiva software package (BD Biosciences, San Jose, Calif., USA).

[10] = test system: OVCAR3 ovarian cancer cell line; experiment: In vitro cytotoxicity, OVCAR3; type: cell-based; settings: Homo sapiens, OVCAR-3; Table 4, ovarian cancer panel
Method: as §2

[11] = test system: OVCAR8 ovarian cancer cell line; experiment: In vitro cytotoxicity, OVCAR8; type: cell-based; settings: Homo sapiens, OVCAR-8; Table 4, ovarian cancer panel
Method: as §2

AUC ([1]; in vivo, 24 mg/kg): 0.1249 µg·h/mL
Cmax ([1]; in vivo, 24 mg/kg): 6.2 ng/mL
Tmax ([1]; in vivo, 24 mg/kg): 5 h
half-life ([1]; in vivo, 24 mg/kg): ~9.3 h
t1/2 ([1]; in vivo, 24 mg/kg): 9.3 h
concentration at 1 h ([1]; plasma, mice, 24 mg/kg i.p., 1 hour, read-out: concentration in the blood one hour following i.p. administration): 6.2 ng/mL
Compound: C#CC(=O)N(c1ccc(-n2cnnn2)c(C)c1)C(C(=O)NC1CCCC1)c1ccccc1 (stereo not drawn) [Compound 9, N-[2-(Cyclopentylamino)-2-oxo-1-phenylethyl]-N-[3-methyl-4-(1Htetraazol-1-yl)phenyl]Propynamide]
IC50 [2]: 5.7 ± 0.9 µM
IC50 [3]: 1.5 ± 1.1 µM
cytotoxic potency in MDA-MB-435 cells [4]: most potent analogue
IC50 [4]: 0.6 ± 0.3 µM
IC50 ([4]; Homo sapiens, MDA-MB-435, 72 h): 0.6 to 6.3 µM
IC50 ([5]; MTT, 72 h exposure (Table 2)): 1.9 ± 0.3 µM
IC50 ([6]; MTT, 72 h exposure (Table 2)): 1 ± 0.7 µM
IC50 [7]: 0.4 ± 0.1 µM
IC50 [8]: 7.8 ± 1.8 µM
IC50 [9]: 7.2 ± 0.2 µM

Compound: C#CC(=O)N(c1ccccc1)C(C(=O)NC1CCCCC1)c1cccs1 (stereo not drawn) [Compound 18, N[2-(Cyclohexylamino)-2-oxo-1-thien-2-ylethyl]-N-phenyl Propynamide]
IC50 [2]: > 20 µM
IC50 [3]: > 10 µM
IC50 ([4]; Homo sapiens, MDA-MB-435, 72 h): > 10 µM
IC50 ([5]; MTT, 72 h exposure (Table 2)): > 10 µM
intensity of MitoSOX staining, fluorescence microscopy (MDA-MB-435 cells; 24 hours): remarkably enhanced the intensity of MitoSOX staining
mitochondrial superoxide production, flow cytometry (MDA-MB-435 cells; IC50 or 3×IC50, 24 hours): induce significant amounts of superoxide
IC50 ([6]; MTT, 72 h exposure (Table 2)): 1.3 ± 0.4 µM
IC50 [7]: 3.5 ± 1.4 µM
IC50 [8]: > 20 µM
IC50 [9]: 14 µM

Compound: C#CC(=O)N(c1ccc(-n2cnnn2)c(C)c1)C(C(=O)NC1CCCC1)c1ccc(F)cc1 (stereo not drawn) [Compound 21]
IC50 ([5]; Table 4, ovarian cancer panel): 0.31 µM
IC50 [10]: 3.1 µM
IC50 ([6]; Table 4, ovarian cancer panel): 0.52 µM
IC50 [11]: 2.2 µM

Compound: C#CC(=O)N(c1ccc(-n2cnnn2)c(C)c1)C(C(=O)NC1CCCC1)c1ccc(F)c(F)c1 (stereo not drawn) [Compound 22]
IC50 ([5]; Table 4, ovarian cancer panel): 0.33 µM
IC50 [10]: 2.5 µM
IC50 ([6]; Table 4, ovarian cancer panel): 0.32 µM
IC50 [11]: 1.5 µM

Compound: C#CC(=O)N(c1ccc(-n2cnnn2)c(C)c1)C(C(=O)NC1CCCC1)c1cccc(F)c1 (stereo not drawn) [Compound 23]
IC50 ([5]; Table 4, ovarian cancer panel): 0.72 µM
IC50 [10]: 0.25 µM
IC50 ([6]; Table 4, ovarian cancer panel): 2 µM
IC50 [11]: 1.5 µM

Compound: C#CC(=O)N(c1ccc(C(N)=O)cc1)C(C(=O)NC1CCCC1)c1ccccc1 (stereo not drawn) [Compound 34]
IC50 [10]: 2.5 µM
IC50 ([6]; Table 4, ovarian cancer panel): 2.5 µM
IC50 [11]: 1.2 µM

Compound: C#CC(=O)N(c1cc(OC)cc(OC)c1)C(C(=O)NC1CCCCC1)c1ccc(OC)c(O)c1 (stereo not drawn) [Compound 35]
IC50 [10]: 7.5 µM
IC50 ([6]; Table 4, ovarian cancer panel): 5.5 µM
IC50 [11]: 2.9 µM

Compound: C#CC(=O)NCC(=O)N(c1ccc(OC)cc1OC)C(C(=O)NC1CCCC1)c1cccs1 (stereo not drawn) [Compound 36]
IC50 [10]: 2.3 µM
IC50 ([6]; Table 4, ovarian cancer panel): 8.5 µM
IC50 [11]: 3.1 µM

Compound: C#CC(=O)NCCC(=O)N(c1ccc(OC)cc1OC)C(C(=O)NC1CCCC1)c1cccs1 (stereo not drawn) [Compound 37]
IC50 [10]: 2.3 µM
IC50 ([6]; Table 4, ovarian cancer panel): 9 µM
IC50 [11]: 1.5 µM

Compound: C#CC(=O)N(c1ccc(OC)cc1OC)C(C(=O)NCC(=O)OCC)c1cccs1 (stereo not drawn) [Compound 38]
IC50 [10]: 0.32 µM
IC50 ([6]; Table 4, ovarian cancer panel): 2.6 ± 1.5 µM
IC50 [11]: 2.8 ± 0.7 µM

Compound: C#CC(=O)N(c1ccc(OC)cc1OC)C(C(=O)NCC(=O)O)c1cccs1 (stereo not drawn) [Compound 39]
IC50 [10]: > 10 µM
IC50 ([6]; Table 4, ovarian cancer panel): 8 µM
IC50 [11]: 6 µM

Compound: C#CC(=O)N(CC(=O)NCC(=O)OCC)c1ccc(OC)cc1OC [Compound 43]
IC50 [10]: 0.3 µM
IC50 ([6]; Table 4, ovarian cancer panel): 0.14 µM
IC50 [11]: 2.2 µM

Compound: C#CC(=O)N(CC(=O)NCC(=O)OCC)c1ccc(-n2cnnn2)c(C)c1 [Compound 44]
IC50 [10]: > 10 µM
IC50 ([6]; Table 4, ovarian cancer panel): 6.3 µM
IC50 [11]: > 10 µM

Compound: CC(=O)O[C@H]1C(=O)[C@@]2(C)[C@H]([C@H](OC(=O)c3ccccc3)[C@]3(O)C[C@H](OC(=O)[C@H](O)[C@@H](NC(=O)c4ccccc4)c4ccccc4)C(C)=C1C3(C)C)[C@]1(OC(C)=O)CO[C@@H]1C[C@@H]2O [paclitaxel, reference compound]
mitochondrial superoxide, fluorescence microscopy (MDA-MB-435 cells; 1.5 μM): only induced a minor amount of mitochondrial superoxide

Source: patent US20130071328A1, “Propynoic Acid Carbamoyl Methyl-Amides and Pharmaceutical Compositions and Methods Based Thereon” (UNIVERSITY OF SOUTHERN CALIFORNIA, priority 2011, published 2013)
